The text below walks through data of patent US20240408170A1, “COMPOSITION FOR DECOMPOSITION OF TRYPSIN OR TMPRSS2” (Riken, priority 2021, published 2024).

Experiment [1] concerns the target T1, TMPRSS2 (Mus musculus, UniProt Q9JIQ8).
T1 construct: from tissue; host or cells: faeces of gnotobiotic mice
Briefly: Western blot of faeces of GF mice inoculated with P. clara strain together with 2-mix. It counts as in vivo. As for the experimental part:
Mouse faecal samples were suspended and diluted 50-fold with phosphate buffered saline (PBS) to which a protease inhibitor cocktail (Roche) was added. Subsequently, the suspended sample was centrifuged at 15,000×g for 10 minutes at 4° C., and the supernatant was subjected to western blot. Mouse pancreatic tissue was rapidly frozen in liquid nitrogen. Proteins were extracted by TRIzol Reagent (Thermo Fisher Scientific K.K.), and the final protein concentration was adjusted to 4 μg/μL. For SDS-PAGE and blotting, Novex (registered trademark) NuPAGE (registered trademark) SDS-PAGE Gel system (Thermo Fisher Scientific K.K.) and iBlot™ 2 Dry Blotting System (Thermo Fisher Scientific K.K.) were used according to the manufacturer's instructions.
The antibodies used are as follows. […]
For orientation: A western blot detects proteins with antibodies after separation by electrophoresis.

The test system of experiment [2] is Citrobacter rodentium. Briefly: Vaccine administration experiment (peracetic acid-inactivated C. rodentium) followed by C. rodentium infection. It counts as in vivo, mouse. As to conditions: with 2-mix. On the procedure: For a colony-forming unit (CFU) assay, cecal patches or cecal luminal contents were collected, and after homogenization with PBS, serially diluted homogenates were plated on LB agar plates. CFU was counted after overnight culture at 37° C. under aerobic conditions.
For the ex vivo evaluation of C. rodentium-specific IgA, the cecal contents were resuspended in a 5× (w/v) LB medium and centrifuged. The supernatant was filtered through a sterilization filter unit with a PVDF film having a pore size of 0.22 μm, and then mixed with an equal amount of a C. rodentium culture solution cultured overnight in vitro. This mixture was gently shaken at room temperature and incubated for 1 hour to examine the aggregation effect with a confocal microscope (Leica TCS SP8). Alternatively, after the incubation, the mixture was centrifuged and washed once with PBS. Thereafter, the bacterial cell pellet was dissolved in a 1% SDS solution (diluted with a 50 mM Tris-HCl buffer solution to which 5 mM EDTA was added). The lysate was stained by western blot with a goat anti-mouse IgA a chain antibody (HRP) (ab97235) to evaluate the relative amount of C. rodentium-binding (C. rodentium-specific) IgA in the faecal contents.
For a vaccine administration experiment, 200 μL of 2-mix (B. uniformis and P. merdae)+P. clara (WT), or 2-mix+P. clara (Δ00502) was preliminarily administered to GF mice. After 4 days, C. rodentium (10^10 cells/mouse) inactivated with peracetic acid was orally administered to the mice once a week for 3 weeks. After 3 weeks of immunization, the mice were infected with C. rodentium (150 μL/mouse) cultured overnight by oral administration, and euthanized on day 14.
The C. rodentium inactivated by peracetic acid was produced as follows. C. rodentium cultured overnight was recovered by centrifugation (16,000×g, 10 minutes) and resuspended in sterilized PBS at a density of 10^10 cells per 1 mL. Peracetic acid (240990, Sigma-Aldrich) was added such that a final concentration was 0.4%, and incubation was performed at room temperature for 1 hour. […]

For experiment [3], the system named is mouse hepatitis virus (MHV). Briefly: Mouse hepatitis virus (MHV) infection of gnotobiotic mice. Format: in vivo. The following applies: with 2-mix. As for the experimental part:
MHV-2 was provided by Makoto UJIKE (Nippon Veterinary and Life Science University). Five-week-old GF C57BL/6N male mice were obtained from CLEA Japan, Inc. or Sankyo Labo Service Corporation, and were separately bred in stainless steel isolators. 200 μL of 2-mix (B. uniformis and P. merdae)+P. clara (WT) or 2-mix+P. clara (Δ00502) was orally administered to the GF mice. Two weeks after inoculation, the mice were orally infected with 4.5×10^6 PFU of MHV-2, and the survival rate was observed every day for 10 days.
The liver and brain were collected on 4 or 5 days after infection to measure virus titers, and homogenization was performed with DNA/RNA Shield (Zymo Research Corporation). Viral RNA was extracted using a Quick-RNA Viral Kit (Zymo Research Corporation) according to the manufacturer's instructions, and cDNA was synthesized using ReverTra Ace (TOYOBO CO., LTD.) and a random primer (TOYOBO CO., LTD.).
Quantitative real-time PCR was performed with LightCycler 480 System (Roche) using THUNDERBIRD SYBR qPCR Mix (TOYOBO CO., LTD.) to amplify an orf1a gene. The relative amount of MHV was obtained from a standard curve created from a serial diluent solution of MHV genomic cDNA. The base sequences of the primers used are as follows.

T1 sequence (Q9JIQ8 254-490 limits assumed): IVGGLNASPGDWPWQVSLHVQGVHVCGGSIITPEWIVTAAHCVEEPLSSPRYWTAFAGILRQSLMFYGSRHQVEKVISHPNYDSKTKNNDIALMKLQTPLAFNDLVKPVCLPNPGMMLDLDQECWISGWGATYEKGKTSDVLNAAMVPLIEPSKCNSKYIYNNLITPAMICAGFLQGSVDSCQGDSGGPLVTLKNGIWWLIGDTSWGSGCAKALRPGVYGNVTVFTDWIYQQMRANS

Turning to Paraprevotella clara [JCM 14859], the “amount of TMPRSS2 in the faeces” value in experiment [1] is reported as “reduced”. Also, the “body weight after infection with C. rodentium” value in experiment [2] (orally vaccinated mice) is given as “body weight loss was reduced”. In experiment [2] (western blot), the “C. rodentium-specific IgA in cecal luminal contents” value is “significantly high amount of C. rodentium-specific IgA” and the “total IgA in cecal luminal contents” value is “significantly high total IgA amount”. Besides, in experiment [3], the “liver pathology (hematoxylin and eosin)” value was “protected from the necrotizing liver pathology”; the “viral titers of MHV in liver and brain” value was “significantly prevented the spread of the virus”. In experiment [3] (oral MHV 14 days after inoculation), the “survival after MHV infection” value is “prolonged survival”.
